Measured values published in patent publication US6616919B2, “Dibenzoylmethane sunscreen compositions containing photostabilizing amounts of tri-substituted butane compounds” (Societe l'Oreal S.A., priority 2001, dated 2003).

Columns and labels:
Format in all cases: physicochemical
[1] = Photostability of butylmethoxydibenzoylmethane in Support 1 formulations, xenon lamp exposure, UV spectrometry (Example 1); details: Support 1, 2% butylmethoxydibenzoylmethane, X = 0% by weight (no 1,1,1-tris(2-methyl-4-hydroxy-5-tert-butylphenyl)butane); ratio of exposed to unexposed OD
Procedure: The photostability of the dibenzoylmethane compound was evaluated on several formulations in which the amount of 1,1,1-tris(2-methyl-4-hydroxy-5-tert-butylphenyl)butane (X) was varied. The support common to these formulations was as follows: [table] For each formula, 3 test samples and 3 control samples were prepared. 2 mg/cm^2 of formula were deposited by spatula onto polymethyl methacrylate plates. […], to a Sun Test Heraus machine equipped with a xenon lamp and having as UV-A illumination: 3.02×10^−3 W/cm^2, and as UV-B illumination: 2.1×10^−4 W/cm^2, and the control plates were maintained for the same time and at the same temperature (38-40° C.) in darkness. After this time, the screening agents were extracted by immersing each plate in 50 g of ethanol and subjecting them to ultrasound for 15 minutes to ensure good extraction. The solutions obtained were analyzed by UV spectrometry. For each test formula, the amount of residual butylmethoxydibenzoylmethane after exposure is given as the ratio of its optical density (OD) in the exposed sample to its unexposed optical density (OD). […]

[2] = Photostability of butylmethoxydibenzoylmethane in Support 2 formulations containing octyltriazone, xenon lamp exposure, UV spectrometry (Example 2); details: Support 2, 0.5% butylmethoxydibenzoylmethane + 1.5% Uvinul T150, X = 0% by weight (no stabilizer)
Procedure: (§1) The photostability of octyltriazone in the presence of butylmethoxydibenzoylmethane was examined on several formulations in which the amount of 1,1,1-tris(2-methyl-4-hydroxy-5-tert-butylphenyl)butane (X) was varied. The support common to these formulations was as follows: [table] For each formula, 3 test samples and 3 control samples were prepared. 2 mg/cm^2 of formula were deposited by spatula onto polymethyl methacrylate plates. […], to a Sun Test Heraus machine equipped with a xenon lamp and having as UV-A illumination: 3.02×10^−3 W/cm^2, and as UV-B illumination: 2.1×10^−4 W/cm^2, and the control plates were maintained for the same time and at the same temperature (38-40° C.) in darkness. After this time, the screening agents were extracted by immersing each plate in 50 g of ethanol and subjecting them to ultrasound for 15 minutes to ensure good extraction. The solutions obtained were analyzed by UV spectrometry. For each test formula, the amount of residual butylmethoxydibenzoylmethane and the residual amount of octyltriazone after exposure is given as the ratio of each respective optical density (OD) in the exposed sample to the unexposed optical density (OD) corresponding to each filter. The machine was set at the maximum absorption corresponding to each filter: Butylmethoxydibenzoylmethane: λmax=358 nm

[3] = Photostability of octyltriazone in the presence of butylmethoxydibenzoylmethane in Support 2 formulations, xenon lamp exposure, UV spectrometry (Example 2); details: Support 2, 0.5% butylmethoxydibenzoylmethane + 1.5% Uvinul T150, X = 0% by weight (no stabilizer)
Procedure: as §1, with “Octyltriazone: λmax=312” for “Butylmethoxydibenzoylmethane: λmax=358”

| Residual OD at 358 nm after 1 hour of UVA irradiation [1] [%] | Residual OD of the dibenzoylmethane at 358 nm after 1 hour of UVA irradiation [2] [%] | Residual OD of the triazine at 312 nm after 1 hour of UVA irradiation [3] [%] | SMILES |
| --- | --- | --- | --- |
| 11 ± 1 | 32 ± 4 | – | COc1ccc(C(=O)CC(=O)c2ccc(C(C)(C)C)cc2)cc1 [butylmethoxydibenzoylmethane, 4-(tert-butyl)-4′-methoxydibenzoylmethane] |
| – | – | 87 ± 13 | CCCCC(CC)COC(=O)c1ccc(Nc2nc(Nc3ccc(C(=O)OCC(CC)CCCC)cc3)nc(Nc3ccc(C(=O)OCC(CC)CCCC)cc3)n2)cc1 (stereo not drawn) [octyltriazone, 2,4,6-tris[p-(2′-ethylhexyl-1′-oxycarbonyl)anilino]-1,3,5-triazine] |
